Laboratory results taken from patent US20110212235A1, “ANTIMICROBIAL SALT SOLUTIONS FOR CHEESE PROCESSING APPLICATIONS” (priority 2006, published 2011).

What was measured:
Type in all cases: cell-based
[1] = tested on: wild type coliforms from cheese plant brine; experiment: Coliforms procedure in cheese brine or buffered solution
Protocol: (§1) In the present example, cultures of various microorganisms native to actual process brines used in cheese manufacture were obtained from a cheese plant. The cultures of yeast, mold, and coliforms were grown and used to test the efficacy of various antimicrobial additives in blue cheese brines. Organism cultures included four different types of yeast (three distinct while yeast cultures and a pink yeast), a black mold culture, a coliform culture, a culture of mixed green mold and yeast that were not separated, and a culture that was identified by the cheese plant as heterofermentative lactic acid bacteria, although no actual identification of the strain was carried out.
Coliforms Procedure: • 1. Inoculate a separate tube containing 10 ml of Brain Heart Infusion (BHI) broth for each wild type coliforms 1 and 2. Incubate for 24+/−2 hours at 35° C.+/−2° C. • 2. Assume growth to be 10^9 cfu/ml. Since two cultures are being used, combine 5.5 ml of each culture added to 99 ml of cold Butterfield's Phosphate Buffered Water (PBW) to obtain 10^8 cfu/ml. • 3. Plate serial ten-fold dilutions of the culture to get the starting count of the inoculum on Violet Red Bile Agar (VRBA). • 4. Add 1 ml of the diluted cocktail to 100 ml of cold test solution. • 5. Determine the population at time 0 and 4 hours by plating serial dilutions to VRBA spread plates. • 6. Incubate the test solutions at 10° C.+/−2° C. for the duration of the experiment. • 7. Incubate the plates at 20° C.+/−2° C. for 72+/−2 hours. • 8. Count representative colonies and multiply by the dilution factor. Note: Each test solution should contain ˜10^8 cfu/ml.
(§2) The brines were treated with different concentrations of octanoic acid and then challenged with a yeast cocktail (which included the pink and 3 different white mold types), the green mold+yeast combination, and coliforms.

[2] = tested on: black mold; experiment: “Mold” procedure, black mold
Protocol: as §1
(§3) “Mold” Procedure: • 1. From refrigerated stock mold cultures, take 1 ml from black mold dilution bottle added to 99 ml of cold Butterfield's Phosphate Buffered Water (PBW) to obtain 10^5 cfu/ml. • 2. Take 1 ml from green mold/white yeast mixture dilution bottle added to 99 ml of cold Butterfield's Phosphate Buffered Water (PBW) to obtain 10^6 cfu/ml. • 3. Plate serial dilutions of the cultures to get the starting count of the inoculum on Dichloran-Rose Bengal-Chloramphenicol Agar (DRBC). • 4. Add 1 ml of the diluted mold culture to 100 ml of cold test solution (do separately for each of the two mold cultures). • 5. Determine the population at time 0 and 4 hours. Spread plate serial dilutions to DRBC agar. • 6. Incubate the test solutions at 10° C.+/−2° C. for the duration of the experiment. • 7. Incubate the plates at 20° C.+/−2° C. for 5 days+/−2 hours. • 8. Count representative colonies and multiply by the dilution factor. Note: For black mold, each test solution should contain ˜10^3 cfu/ml. For green mold/white yeast mixture, each test solution should contain ˜10^4 cfu/ml.

[3] = tested on: green mold/white yeast mixture; experiment: “Mold” procedure, green mold/white yeast mixture; conditions: 500 ppm in mozzarella brine
Protocol: as §1, §3
Screening tests identified octanoic acid as a promising antimicrobial additive for salt brines. Table 16 gives results of a challenge test run on actual blue cheese and mozzarella process brine samples sent from a cheese plant. The brines were treated with different concentrations of octanoic acid and then challenged with a yeast cocktail (which included the pink and 3 different white mold types), the green mold+yeast combination, and coliforms. […] The plate counts listed parenthetically as (est) were too numerous to count and were estimated.

[4] = tested on: yeast cocktail (Raised, Rough and Flat white yeast and a pink yeast); experiment: “Yeast” procedure, yeast cocktail
Description: In the present example, cultures of various microorganisms native to actual process brines used in cheese manufacture were obtained from a cheese plant. […] Organism cultures included four different types of yeast (three distinct while yeast cultures and a pink yeast), a black mold culture, a coliform culture, a culture of mixed green mold and yeast that were not separated, and a culture that was identified by the cheese plant as heterofermentative lactic acid bacteria, although no actual identification of the strain was carried out.
(§4) “Yeast” Procedure: • 1. Inoculate a separate tube containing 10 ml of Brain Heart Infusion (BHI) broth for each wild type (Raised, Rough and Flat white yeast along with a single pink yeast). Incubate for 5 days at 26° C.+/−2° C. • 2. Assume growth to be 10^7 cfu/ml. Since 4 cultures are being used, combine 2.75 ml of each culture added to 99 ml of cold Butterfield's Phosphate Buffered Water (PBW) to obtain 10^6 cfu/ml of yeast cocktail. • 3. Plate serial dilutions of the culture to get the starting count of the inoculum on Dichloran-Rose Bengal-Chloramphenicol Agar (DRBC). • 4. Add 1 ml of the diluted cocktail to 100 ml of cold test solution. • 5. Determine the population at time 0 and 4 hours. Spread plate serial dilutions to DRBC agar. • 6. Incubate the test solutions at 10° C.+/−2° C. for the duration of the experiment. • 7. Incubate the plates at 20° C.+/−2° C. for 5 days+/−2 hours. • 8. Count representative colonies and multiply by the dilution factor. Note: Each test solution should contain ˜10^4 cfu/ml.
as §2

[5] = tested on: wild type coliforms from cheese plant brine; experiment: Coliforms procedure in cheese brine or buffered solution; remark: listed apart in the source
[6] = tested on: L. monocytogenes; experiment: L. monocytogenes cocktail challenge of surfactant/salt solutions at 2° C.; conditions: after 4 hours in solution at 2° C.
Protocol: Tests were generally run according to the following procedure:
(§5) 1. Inoculate a separate tube containing approximately 10 ml of Brain Heart infusion (BHI) broth with the following L. monocytogenes strains: H2446 (CDC Global Standard), Scott A (serotype 4b), 12243 (serotype 1/2a), and two strains isolated from the environment of a cooked meat and poultry facility, designated WP1, and WP4. Incubate the tubes at least 5 days at 7-10° C.+/−2° C. 2. Assume the growth to be 10^9 cfu/ml. Serially dilute each culture in cold (˜7° C.). Butterfield's Phosphate Buffered Water (PBW) to 10^8 cfu/ml (1:10). Since five cultures of L. monocytogenes are being used as a cocktail, begin the dilution series using 2.20 ml of each culture added to 99 ml of PBW. 3. Plate (−6, −7, −8) the diluted culture to get the starting count of the inoculum on Modified Oxford medium (MOX) using a thin agar overlay (TAL) technique (overlay with Trypticase Soy Agar [TSA]) to revive injured cells. 4. Add 1 ml of the diluted cocktail to 100 ml of cold test solution. 5. Mix the solutions well. 6. Determine the L. monocytogenes population at time 0 and 4 hours. Plate −1 (0.1 ml on 1 plate), −2, −3, and −4 dilutions using spread plates on MOX TAL with TSA. 7. Incubate the test solutions at test temperature for the duration of the experiment. 8. Incubate the MOX TAL with TSA plates at 20° C.+/−2° C. for 72+/−3 hours. Count representative colonies, which are black, and multiply by the dilution factor.

[7] = tested on: L. monocytogenes; experiment: L. monocytogenes challenge in beef plant chill brine at 4° C.; conditions: after 4 hours at 4° C.; surfactant added to beef plant brine, approximately 17% sodium chloride
Protocol: as §5
Several tests were carried out to determine the effectiveness of embodiments according to the invention in meat processing chill brines. In one experiment, brine was taken at the end of a production week from a brine chiller used in a ready to eat, cooked beef production line. The sodium chloride concentration in this brine was approximately 17%. Samples of the brine with and without added surfactant were inoculated with a cocktail of L. monocytogenes as per the procedure described above, incubated at 4° C. for four hours, and then plated to determine L. monocytogenes survival.

[8] = tested on: White Yeast; experiment: Yeast challenge, white yeast; conditions: after 4 hours in mozzarella cheese brine; Table 19
Protocol: as §4
(§6) In order to determine if the effect of the additive was repeatable, more challenge tests were run on samples of process brine. […] In this test the solutions were challenged with two distinct yeast (a white and a pink) types and coliforms from the samples sent by the cheese plant.

[9] = tested on: Pink Yeast; experiment: Yeast challenge, pink yeast; conditions: after 4 hours in mozzarella cheese brine; Table 19
Protocol: as §4, §6

[10] = about 250 ppm in blue cheese brine
[11] = after 4 hours in buffer of 375 ppm acetic acid and 525 ppm sodium acetate, pH 4.74
[12] = Table 2, different salts and salt concentrations
[13] = after 4 hours in blue cheese brine taken before or after brining cheese wheels, Table 22

Compound | Black Mold count [2, 11] | Yeast Cocktail count [4, 11] | Coliform count [5, 11] | L. mono count [7] | L. mono count ([6]; Table 1) | also measured
CCCCCCCC(=O)O [octanoic acid, octanoic (caprylic) acid] |  |  |  |  |  | log kill of coliform [1, 10]: ~3 log; log kill of mold [2, 10]: ~3 log; log reduction in the yeast+mold count [3]: 2 log; log kill of one of the yeast cultures ([4]; 250 ppm in mozzarella brine (so in the source)): > 3.76 log; log kill of yeast [4, 10]: ~3 log; log reduction in the coliform count ([5]; 500 ppm in mozzarella brine): 2 log; log kill of coliforms ([5]; mozzarella brine, Table 19): ~2 log
CCCCCCCC(=O)[O-].[Na+] [35 ppm Na Octanoate, sodium octanoate] | 710 cfu/mL | 9,000 cfu/mL | 7,000 cfu/mL |  |  | 
sodium olefin sulfonate [50 ppm sodium olefin sulfonate] |  |  |  | 10 cfu/mL |  | L. mono count [6, 12]: 1.8 × 10^5 cfu/mL
[Cl-].[Na+] [24% NaCl, sodium chloride, reference compound] | 660 cfu/mL | 6,600 cfu/mL | 11,000 cfu/mL |  |  | 
CCCCCCCC(=O)[O-].[Na+] [140 ppm Na Octanoate, sodium octanoate] | 630 cfu/mL | 10,000 cfu/mL | 7,700 cfu/mL |  |  | 
lauramine oxide [50 ppm lauramine oxide] |  |  |  | <10 cfu/mL | 3.6 × 10^3 cfu/mL | L. mono count [6, 12]: 5.8 × 10^4 cfu/mL
fatty alkanolamide [50 ppm fatty alkanolamide] |  |  |  | <10 cfu/mL | 1.1 × 10^4 cfu/mL | 
CCCCCCCC(=O)O [1250 ppm octanoic acid, octanoic acid] |  |  |  |  |  | White Yeast count [8]: <10 cfu/mL; Pink Yeast count [9]: <10 cfu/mL; Coliform count ([5]; after 4 hours in mozzarella cheese brine, Table 19): 1.2 × 10^3 cfu/mL
nonylphenol ethoxylate [12.5 ppm nonylphenol ethoxylate] |  |  |  | 20 cfu/mL |  | 
nonylphenol ethoxylate [50 ppm nonylphenol ethoxylate] |  |  |  | <10 cfu/mL | 1.3 × 10^5 cfu/mL | 
CCCCCCCC(=O)O [250 ppm octanoic acid (after cheese), octanoic acid] |  |  |  |  |  | Coliform count [1, 13]: <10 cfu/mL; Black Mold count [2, 13]: <10 cfu/mL; Yeast Cocktail count [4, 13]: <10 cfu/mL
CCCCCCCC(=O)[O-].[Na+] [70 ppm Na Octanoate, sodium octanoate] | 510 cfu/mL | 7,500 cfu/mL | 12,000 cfu/mL |  |  | 
sodium linear alkylbenzene sulfonate |  |  |  | <10 cfu/mL | 5.9 × 10^3 cfu/mL | 
